Where a name gives a salt, the structure may show the parent alone.
Key:
anesthetized rats = test: Salivation after iontophoretic transdermal co-delivery of agonist and antagonist; assay type: in vivo, Long Evans Hooded rats; conditions: anesthetized rat, one patch with 1 mg Compound 3 plus 0.01 mg antagonist
Description: Experimental compounds and drug substances were delivered transdermally in rats using iontophoresis as follows. The fur was shaved from the backs of Long Evans Hooded rats weighing 225 to 325 grams, using electric clippers. Experimental compounds and drug substances were formulated at suitable concentrations an aqueous mixture of the following composition:
The polyvinyl alcohol/water was heated to 95 deg C. until it became clear, then the other constituents were added and mixed well. The mixture was introduced into suitable molds containing a disc-shaped cavity 2.2 cm diameter and 2.2 mm deep. Molds may be fabricated using two glass sheets separated by a silicone rubber sheet with suitable sized cavities and filling ports cut-outs. The molds were subject to 3 freeze-thaw cycles at −80 deg C. and 20 deg C. until a firm cryogel was obtained. The gels were separated from the molds and trimmed into a circular shape. The gel was placed in a silicone rubber casing with one face in contact with a circular silver foil anodic electrode (22 mm dia/250 microns thick), and the assembly was placed on the shaved skin of the rat such that the other face was in contact with the skin on one side of the back of the rat. The rubber casing formed a seal over and around the gel/electrode assembly. […] This was placed on the other side of the shaved back of the rat, the edges of the gel discs being about 20 mm apart at their nearest point. A DC voltage was applied across the two patches from a constant-current DC power supply and the voltage adjusted to obtain the desired current, such that the skin of the animal completed the electrical circuit.
The devices were placed on shaved backs of anesthetized rats and salivation was measured.
The animals were placed slightly head-down on an inclined, heated ramp. Rectal temperature was monitored using a thermocouple and the temperature of the heating pad was adjusted manually to maintain normal body temperature. Saliva was collected from the mouth by absorption onto pre-weighed slips of filter paper. The filter paper was changed periodically and the amount of saliva was measured by weighing the filter paper slips

[1] = test system: salivary gland inositol phosphate; test: In vivo tissue inositol phosphate signaling pathway activation, salivary gland; design: species or system Long Evans Hooded rats; conditions: rat; for block of increase in salivary gland inositol phosphate caused by Compound 3: Compound 3 1 mg/kg; for inhibition of salivary gland inositol phosphate response to MCD-386: MCD-386 50 mg/kg, antagonist 0.3 mg/kg (FIG. 7)
Description: (§1) Experimental compounds or drug substances were administered using standard techniques to Long Evans Hooded rats weighing 225 to 350 grams, and which had been pretreated with a subcutaneous injection of lithium chloride at a suitable dose between 3 and 10 mmoles per kg. At suitable times the animals were briefly anesthetized using 5% isoflurane and euthanized by decapitation. The brains and submaxillary salivary glands were rapidly dissected out, and the hippocampuses were dissected from the brains. The dissected tissues were homogenized in a suitable volume of ice-cold phosphate-buffered saline containing 10 mM lithium chloride, pH7.4, using a tissue homogenizer, and used immediately or frozen in aliquots at −80 deg C. for future use. The concentration of inositol-1-phosphate was determined in the homogenates using the IPOne TR-FRET assay (CisBio cat no 621PAPEB), following the manufacturer's instruction

[2] = molecular target: T1, human muscarinic M1 receptors (Homo sapiens, UniProt P11229); test: IP production in A9L cells with human M1 receptors (IPOne TR-FRET), Example 28; assay type: cell-based; conditions: for huM1/A9L Smax: percentage of maximal stimulation by carbachol; for huM1/A9L ED50 relative to CCh*: potency relative to carbachol at its EC50, semi-quantitative
T1 construct: host or cells: A9L cells
T1 sequence (P11229 1-460): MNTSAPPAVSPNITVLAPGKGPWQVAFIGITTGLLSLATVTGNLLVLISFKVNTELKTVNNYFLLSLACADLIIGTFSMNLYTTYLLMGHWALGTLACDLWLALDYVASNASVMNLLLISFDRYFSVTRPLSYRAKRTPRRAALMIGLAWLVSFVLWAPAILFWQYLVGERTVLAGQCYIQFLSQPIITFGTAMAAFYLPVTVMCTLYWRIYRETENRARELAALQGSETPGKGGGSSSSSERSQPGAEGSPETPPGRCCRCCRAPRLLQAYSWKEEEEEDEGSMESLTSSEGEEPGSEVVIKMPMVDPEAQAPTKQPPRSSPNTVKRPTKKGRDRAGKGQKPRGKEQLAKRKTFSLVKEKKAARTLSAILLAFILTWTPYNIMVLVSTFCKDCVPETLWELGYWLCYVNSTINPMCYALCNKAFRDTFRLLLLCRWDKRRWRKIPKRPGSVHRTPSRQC
Description: (§2) Muscarinic M1 and M3 agonist activity was evaluated by measuring the stimulation of inositol phosphate (IP) production in the presence of lithium chloride from A9L cells transfected with expression plasmids containing human muscarinic M1 and M3 receptors, respectively. The cell lines were a gift from Professor W Messer, and the methods were as described in Tejada F R et al. J. Med. Chem. 2006; 49: 7518-31 except that the assay was scaled down to run in 384 well plates, and IP was measured in the cell lysates using the non-isotopic IPOne TR-FRET assay (CIS-BIO, Inc).
(§3) Cells were grown to 90% confluence in 384 well hi-base plates (Greiner Bio-One), compounds were added at suitable concentrations in growth medium containing 10 mM LiCl, buffered with an extra 10 mM HEPES (pH7.4), and incubated for 60 minutes at 37° C. Cells were lysed and assayed for IP following the manufacturer's instructions.
(§4) The value for a full agonist is 100%, while partial agonists give values below 100%.

[3] = molecular target: T2, human muscarinic M3 receptors (Homo sapiens, UniProt P20309); test: IP production in A9L cells with human M3 receptors (IPOne TR-FRET), Example 28; assay type: cell-based; conditions: for huM3/A9L Smax: percentage of maximal stimulation by carbachol; for huM3/A9L ED50 relative to CCh*: potency relative to carbachol at its EC50, semi-quantitative
T2 construct: host or cells: A9L cells
Description: as §2, §3, §4

[4] = Metabolites in serum and urine of dosed rats (LC-MS); assay type: in vivo; conditions: rat serum or urine, 10 mg/kg po
Description: Oxadiazoles disclosed herein as well as other oxadiazoles were investigated to determine the formation of metabolites. Animals were dosed, blood taken, serum prepared, serum proteins precipitated and ultrafiltrates prepared as described in Example 6. In separate experiments, urine was collected from rats for 16-24 hours after dosing, using standard metabolic cages. The urine container and collected urine were maintained at 4° C. Urine was lyophilized, taken back into water. The uftrafiltrate was prepared by adding formic acid to a final concentration of 1% to the urine samples, then filtered through a 0.2 um nylon membrane. The ultrafiltrate was subjected to LC-MS analysis. Instead of measuring the product ions in Q3, manual Q1 scans of the liquid chromatograph were undertaken, seeking parent ions of potential metabolites of the compounds. The criteria for identifying metabolites were as follows: (1) the ion should be present in the sera or urines of dosed rats, but not in sera or urines from non-dosed rats (2) the ion should be identifiable as a metabolic derivative of the dosed compound (e.g. loss of a functional chemical moiety, addition of a hydroxyl group or a glucuronic acid moiety, etc). Metabolites were determined not to be present if no compound meeting the above criteria could be detected in serum or urine.

[5] = Blood and brain concentrations (rats), oral gavage; assay type: in vivo, Long-Evans Hooded rats; conditions: rat, 10 mg/kg po, 1 hr, relative to MCD-386 = 1.00
Description: Long-Evans Hooded rats (Charles River: male, 250-350 g) were dosed with solutions of test compounds in PBS by oral gavage. At the desired time after dosing, the animals were anesthetized with isoflurane, and then euthanized by cervical dislocation. Blood was obtained by cardiac puncture, transferred to a 1.5 mL microcentrifuge tube containing 15U Heparin, and the plasma recovered after centrifugation. Brains were dissected, weighed, immediately chilled to 4° C., and homogenized using a PowerGen 125 homogenizer in five volumes of ice-cold 2% formic acid. Proteins were precipitated from plasma and brain homogenate with two and five volumes respectively of ice-cold 2% formic acid and clarified by centrifugation. The supernatant was ultra-filtered by centrifugation through a 3K MWCO spin column (Pall Life Sciences), following the manufacturer's instructions. The concentration of compound in the ultra-filtrate was subjected to reverse-phase liquid chromatography using a 150×2.1 mm Agilent C8 reverse-phase column on a Shimadzu Prominence LC, eluting the compounds with a gradient of 2% to 50% of acetonitrile+0.1% formic acid for compound MI-50,382, or an isocratic flow of 2% acetonitrile+0.1% formic acid for the rest of the compounds listed. The concentration of the compound in the column effluent was measured using an Applied Biosystems API-3200 triple quadrupole mass spectrometer equipped with an electrospray sample injection system. The counts of the characteristic parent and product ions of each test compound were converted to concentration units by comparison with a standard calibration curve.

[6] = test system: hippocampal inositol phosphate; test: In vivo tissue inositol phosphate signaling pathway activation, hippocampus; design: species or system Long Evans Hooded rats; conditions: rat, Compound 3 1 mg/kg, antagonist 0.03 mg/kg
Description: as §1

human FMO1 Supersomes = molecular target: T3, human FMO1 Supersomes (Homo sapiens, UniProt Q01740); test: Metabolism by flavin monoxygenase 1 (FMO1) Supersomes; assay type: in vitro ADME; conditions: after 6 hours (FIG. 2)
T3 construct: purchased BD Biosciences 456241
T3 sequence (Q01740 1-532): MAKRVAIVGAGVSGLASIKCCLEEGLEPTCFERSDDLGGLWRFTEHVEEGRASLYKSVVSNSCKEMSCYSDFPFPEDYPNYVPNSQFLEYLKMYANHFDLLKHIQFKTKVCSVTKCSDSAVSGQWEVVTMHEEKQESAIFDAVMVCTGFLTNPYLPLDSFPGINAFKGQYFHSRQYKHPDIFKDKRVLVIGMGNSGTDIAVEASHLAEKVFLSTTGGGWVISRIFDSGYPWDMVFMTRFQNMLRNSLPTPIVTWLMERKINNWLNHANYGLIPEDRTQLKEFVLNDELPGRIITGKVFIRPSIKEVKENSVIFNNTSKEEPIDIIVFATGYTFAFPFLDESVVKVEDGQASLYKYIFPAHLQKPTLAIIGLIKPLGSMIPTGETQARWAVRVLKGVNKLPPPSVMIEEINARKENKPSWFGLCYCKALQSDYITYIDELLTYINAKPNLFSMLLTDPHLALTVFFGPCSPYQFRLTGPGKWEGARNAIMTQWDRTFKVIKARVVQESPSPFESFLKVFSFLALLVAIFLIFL
Description: […] Aliquots were removed every 10 minutes, and 1% formic acid was added to halt the reaction. Samples were centrifuged, filtered through 0.2 micron spinfilter and the amount of each compound in the supernatants was quantitated using LC/MS/MS.

[7] = tertiary amine antagonist 0.1 mg/kg (FIGS. 8C, 8D)
[8] = antagonist 0.03 mg/kg (FIGS. 8C, 8D)

T2 sequence (P20309 whole entry): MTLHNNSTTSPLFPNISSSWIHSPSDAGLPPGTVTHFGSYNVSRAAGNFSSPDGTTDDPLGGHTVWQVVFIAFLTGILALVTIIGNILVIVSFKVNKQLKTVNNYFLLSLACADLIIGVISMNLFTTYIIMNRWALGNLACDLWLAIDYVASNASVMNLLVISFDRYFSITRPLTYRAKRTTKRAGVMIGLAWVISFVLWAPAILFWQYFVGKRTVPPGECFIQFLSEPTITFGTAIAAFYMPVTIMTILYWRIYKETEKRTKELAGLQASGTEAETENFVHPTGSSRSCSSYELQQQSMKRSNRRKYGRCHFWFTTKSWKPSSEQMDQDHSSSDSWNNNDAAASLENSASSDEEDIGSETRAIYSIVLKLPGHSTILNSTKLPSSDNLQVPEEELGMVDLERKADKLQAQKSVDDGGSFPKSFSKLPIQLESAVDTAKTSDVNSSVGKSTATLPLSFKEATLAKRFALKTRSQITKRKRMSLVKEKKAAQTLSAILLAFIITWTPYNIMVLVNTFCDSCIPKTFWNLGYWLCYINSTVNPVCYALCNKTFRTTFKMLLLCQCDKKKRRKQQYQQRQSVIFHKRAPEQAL

## CCN(CC)CC#CCOC(=O)C(O)(c1ccccc1)C1CCCCC1 (stereo not drawn) [oxybutinin]
Anesthetized rats
  reduction of salivation caused by transdermal iontophoretic delivery of Compound 3: reduced salivation, but were less effective
[1]; [7]
  block of increase in salivary gland inositol phosphate caused by Compound 3: less effective
[1]
  inhibition of salivary gland inositol phosphate response to MCD-386: less effective

## Cc1noc(C2(F)CCCNC2)n1 (stereo not drawn) [Compound 35, 5-(3-fluoropiperidin-3-yl)-3-methyl-1,2,4-oxadiazole]
PAMPA test, Example 34; PAMPA
  Papp: 16.3 ×10⁻⁶ cm/s
[2]
  huM1/A9L Smax: 81%
  huM1/A9L ED50 relative to CCh*: − (− potency <0.5-0.1x CCh)
[3]
  huM3/A9L Smax: 70%
  huM3/A9L ED50 relative to CCh*: −− (−− potency <0.1x CCh)

## [2H]C([2H])(C)c1noc(C2CN=CNC2)n1 (stereo not drawn) [Compound 6c, 3-(1,1-d2-ethyl)-5-(1,4,5,6-tetrahydropyrimidin-5-yl)-1,2,4-oxadiazole hydrochloride]
[4]
  Presence of metabolites (10 mg/kg po): No
[5]
  Brain Cmax (10 mg/kg po) 1 hr MCD-386 = 1.00: 0.82

## NC(=O)C(c1ccccc1)(c1ccccc1)[C@@H]1CCN(CCc2ccc3c(c2)CCO3)C1 [darifenacin]
Anesthetized rats
  reduction of salivation caused by transdermal iontophoretic delivery of Compound 3: reduced salivation, but were less effective
[1]; [7]
  block of increase in salivary gland inositol phosphate caused by Compound 3: less effective
[1]
  inhibition of salivary gland inositol phosphate response to MCD-386: less effective

## CC(C)[N+](C)(CCOC(=O)C1c2ccccc2Oc2ccccc21)C(C)C [propantheline]
Anesthetized rats
  reduction of salivation caused by transdermal iontophoretic delivery of Compound 3: greatly reduced
[1]; [8]
  block of increase in salivary gland inositol phosphate caused by Compound 3: can block
[1]
  inhibition of salivary gland inositol phosphate response to MCD-386: virtually completed inhibited
[6]
  effect on increase in hippocampal inositol phosphate caused by Compound 3: without blocking the increase in hippocampal inositol phosphate

## [2H]C([2H])([2H])C([2H])([2H])c1noc(C2CN=CNC2)n1 (stereo not drawn) [Compound 2c, 3-(1,1,2,2,2-d5-ethyl)-5-(1,4,5,6-tetrahydropyrimidin-5-yl)-1,2,4-oxadiazole hydrochloride]
[4]
  Presence of metabolites (10 mg/kg po): No
[5]
  Brain Cmax (10 mg/kg po) 1 hr MCD-386 = 1.00: 0.61

## C[N+]1(C)CCC(OC(=O)C(O)(c2ccccc2)C2CCCC2)C1 (stereo not drawn) [glycopyrrolate]
Anesthetized rats
  reduction of salivation caused by transdermal iontophoretic delivery of Compound 3: greatly reduced
[1]; [8]
  block of increase in salivary gland inositol phosphate caused by Compound 3: can block
[1]
  inhibition of salivary gland inositol phosphate response to MCD-386: virtually completed inhibited
[6]
  effect on increase in hippocampal inositol phosphate caused by Compound 3: without blocking the increase in hippocampal inositol phosphate

## 3-methyl-5-(quinuclidin-3-yl)-1,2,4-oxadiazole [Compound 37]
Human FMO1 Supersomes
  extent of metabolism in FMO Supersomes (in words): almost completely metabolized
PAMPA test, Example 34; Table 14
  PAMPA Permeability Coefficient (×10^6): 3.02 ×10^6
[2]; huM1 versus huM3 A9L cells
  selectivity between M1 and M3 receptors: essentially non-selective between M1 and M3 receptors
[2]
  huM1/A9L Smax: 50-100%
  huM1/A9L ED50 relative to CCh*: ++ (++ potency >10x CCh)
[3]
  huM3/A9L Smax: 50-100%
  huM3/A9L ED50 relative to CCh*: ++ (++ potency >10x CCh)

— US9403806B1, “Cognition enhancing compounds and compositions, methods of making, and methods of treating” (NeuroSolis, Inc., priority 2010, dated 2016)
